Source: patent US5250679A, “Nonpeptidyl platelet aggregation inhibitors having specificity for the GPIIb III receptor” (Genentech, Inc., priority 1992, dated 1993)
Where a name gives a salt, the structure may show the parent alone.

Molecular target: T1, GP IIb IIIa (Homo sapiens, UniProt P05106+P08514)
T1 construct: from tissue; host or cells: outdated human platelets
Assay: Fibrinogen-GP IIb IIIa Receptor ELISA Binding Assay (Fg/IIbIIIa)
Settings: Example 29, Cmpd # 1-105; read-out: IC50 Fg/IIbI
Protocol: Briefly, microtiter plates are coated with fibrinogen (10 mg/ml) and then blocked with TACTS buffer containing 0.5% bovine serum albumin (BSA). […] After another wash a goat anti-mouse IgG conjugated to horseradish peroxidase is added. […] The reaction is stopped with 1N sulfuric acid and the absorbance at 492 nm is recorded. […] Outdated human platelets are washed 3 times with 10 mM tris-HCl, 150 mM NaCl (TBS), 1 mM EDTA, pH 7.5, and centrifuged at 2000×g to pellet cells. […] The supernatant fraction is collected and the supernatant is loaded onto a concanavalin-A column, previously equilibrated in TBS, 1 mM Ca2 Cl2, 0.1% Triton, 0.05% NaN3 and eluted with 0.2M a-methylmannoside. Fractions are pooled and loaded onto a heparin-agarose column. The flowthrough is collected and concentrated on an Amicon YM 30 filter to a volume of approximately 5-10 ml. The concentrate is then applied to an S-300 column (500 ml) and 6 ml fractions are collected. The GP IIb IIIa containing fractions are collected, pooled, and stored at -80° C. […] The precipitate is spun down in appropriate size bottles at 2000×g. The supernatant is decanted and the precipitate resuspended in 150 mM NaCl (approximately 50% of the original volume). […] The suspension is spun down and the precipitate is resuspended in Tris-saline in a minimal volume (approximately 5% of the original volume). Any remaining insoluble material is spun down at 2000 rpm in a Sorval type centrifuge and the fibrinogen supernatant is decanted and dialyzed overnight at 4° C. against Tris-saline. Characterization of the fibrinogen is by the Bradford protein assay, SDS-PAGE, and/or Western blotting using well known standard procedures. Briefly, 96 well plates are coated (Type Nunc 1 MaxisorpTM) with 10 mg/ml purified fibrinogen ([…]), and allowed to stand overnight at 4° C. […] The plates are again washed three times with PBS/Tween and then […] of sample in TNCNT is added. The mixture is incubated for 15 minutes at room temperature on a plate shaker. […] Fifty ml of this diluted GP IIb IIIa is then added to each well and incubated on a plate shaker at room temperature. After one hour, the plates are washed four times with PBS/Tween and 100 ml of a polyclonal or monoclonal antibody specific for GP IIIa such as AP3 (1 mg/ml) (See e.g. […] After a one hour incubation at room temperature on a plate shaker, the samples are washed 4 times with PBS/Tween. […] The color develops within about 3 to 20 minutes and the reaction is stopped with 100 ml 1M H2 SO4. The optical density at 492 nm vs 405 nm is recorded and IC50 values are determined.

T1 sequence (P08514 32-887 limits assumed): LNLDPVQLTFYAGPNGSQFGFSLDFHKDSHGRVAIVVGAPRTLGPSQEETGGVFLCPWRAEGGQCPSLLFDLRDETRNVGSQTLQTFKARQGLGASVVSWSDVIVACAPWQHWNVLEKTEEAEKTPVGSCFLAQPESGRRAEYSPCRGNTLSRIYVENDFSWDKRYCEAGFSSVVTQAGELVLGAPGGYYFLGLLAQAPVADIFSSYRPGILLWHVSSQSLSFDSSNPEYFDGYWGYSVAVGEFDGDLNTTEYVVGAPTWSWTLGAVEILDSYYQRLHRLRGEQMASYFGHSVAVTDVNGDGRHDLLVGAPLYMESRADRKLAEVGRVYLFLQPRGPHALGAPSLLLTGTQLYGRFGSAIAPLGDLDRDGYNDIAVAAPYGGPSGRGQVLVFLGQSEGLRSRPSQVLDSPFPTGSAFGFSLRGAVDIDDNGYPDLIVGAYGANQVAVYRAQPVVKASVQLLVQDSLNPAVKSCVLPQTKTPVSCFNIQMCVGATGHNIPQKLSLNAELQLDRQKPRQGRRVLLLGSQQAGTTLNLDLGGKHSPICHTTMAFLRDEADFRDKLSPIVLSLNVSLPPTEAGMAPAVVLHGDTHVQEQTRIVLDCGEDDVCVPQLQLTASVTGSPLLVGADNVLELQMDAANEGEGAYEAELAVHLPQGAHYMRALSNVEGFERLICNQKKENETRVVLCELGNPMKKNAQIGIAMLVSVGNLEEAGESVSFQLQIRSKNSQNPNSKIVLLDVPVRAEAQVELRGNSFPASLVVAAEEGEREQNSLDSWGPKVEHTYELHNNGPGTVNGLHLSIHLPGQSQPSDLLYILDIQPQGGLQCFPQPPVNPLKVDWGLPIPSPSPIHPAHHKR
T1 sequence (P08514 891-1039 partner limits assumed): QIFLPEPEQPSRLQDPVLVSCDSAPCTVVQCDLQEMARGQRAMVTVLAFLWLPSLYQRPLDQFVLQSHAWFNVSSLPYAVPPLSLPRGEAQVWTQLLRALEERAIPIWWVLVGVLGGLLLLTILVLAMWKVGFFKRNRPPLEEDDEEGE
T1 sequence (P05106 27-788): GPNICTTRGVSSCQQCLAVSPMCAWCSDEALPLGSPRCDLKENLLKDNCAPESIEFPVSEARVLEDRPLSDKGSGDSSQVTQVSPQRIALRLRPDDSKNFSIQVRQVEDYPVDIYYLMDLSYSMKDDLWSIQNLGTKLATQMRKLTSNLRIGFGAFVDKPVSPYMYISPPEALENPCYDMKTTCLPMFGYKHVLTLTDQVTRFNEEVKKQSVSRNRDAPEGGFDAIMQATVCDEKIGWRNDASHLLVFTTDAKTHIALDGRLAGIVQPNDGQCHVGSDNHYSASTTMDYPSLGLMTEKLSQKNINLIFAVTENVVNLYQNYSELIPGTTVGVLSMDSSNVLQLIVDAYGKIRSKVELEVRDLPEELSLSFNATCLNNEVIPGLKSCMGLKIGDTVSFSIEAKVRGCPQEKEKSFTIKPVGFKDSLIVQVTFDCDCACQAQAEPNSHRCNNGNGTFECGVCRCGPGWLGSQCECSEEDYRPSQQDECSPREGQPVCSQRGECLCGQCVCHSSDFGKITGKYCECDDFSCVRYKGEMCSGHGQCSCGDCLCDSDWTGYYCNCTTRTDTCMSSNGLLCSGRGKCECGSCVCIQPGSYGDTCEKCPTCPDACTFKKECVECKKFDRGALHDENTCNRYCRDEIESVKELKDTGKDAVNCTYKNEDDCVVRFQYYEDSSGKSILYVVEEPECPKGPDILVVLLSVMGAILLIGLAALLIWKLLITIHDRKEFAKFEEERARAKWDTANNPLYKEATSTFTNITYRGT

Row | Structure (SMILES) | IC50
1 | NCCCc1ccc2c(c1)C(=O)N(CCC(=O)O)CC(=O)N2 [Cmpd 1] | 8.3 µM
2 | CN1C(=O)CN(CCC(=O)O)C(=O)c2cc(CCCN)ccc21 [Cmpd 3] | 28 µM
3 | CN1C(=O)CN(CCC(=O)O)C(=O)c2cc(CCCNC(=N)N)ccc21 [Cmpd 4] | 0.466 µM
4 | CN1C(=O)CN(CCC(=O)O)C(=O)c2cc(C#CCN)ccc21 [Cmpd 5] | 7 µM
5 | CN1C(=O)CN(CCC(=O)O)C(=O)c2cc(C#CCNC(=N)N)ccc21 [Cmpd 6] | 0.17 µM
6 | CC1C(=O)N(C)c2ccc(CCCN)cc2C(=O)N1CCC(=O)O (stereo not shown) [Cmpd 7] | 30 µM
7 | CC1C(=O)N(C)c2ccc(CCCNC(=N)N)cc2C(=O)N1CCC(=O)O (stereo not shown) [Cmpd 8] | > 100 µM
8 | CC1C(=O)N(C)c2ccc(C#CCN)cc2C(=O)N1CCC(=O)O (stereo not shown) [Cmpd 9] | 70 µM
9 | CC1C(=O)N(C)c2ccc(C#CCNC(=N)N)cc2C(=O)N1CCC(=O)O (stereo not shown) [Cmpd 10] | 30 µM
10 | CN1C(=O)C(c2ccccc2)N(CCC(=O)O)C(=O)c2cc(CCCN)ccc21 (stereo not shown) [Cmpd 11] | 600 µM
11 | CN1C(=O)C(c2ccccc2)N(CCC(=O)O)C(=O)c2cc(CCCNC(=N)N)ccc21 (stereo not shown) [Cmpd 12] | 2.3 µM
12 | CN1C(=O)C(c2ccccc2)N(CCC(=O)O)C(=O)c2cc(C#CCN)ccc21 (stereo not shown) [Cmpd 13] | > 1000 µM
13 | CN1C(=O)C(c2ccccc2)N(CCC(=O)O)C(=O)c2cc(C#CCNC(=N)N)ccc21 (stereo not shown) [Cmpd 14] | 25 µM
14 | CN1C(=O)C2CCC(CC(=O)O)N2C(=O)c2cc(CCCN)ccc21 (stereo not shown) [Cmpd 15] | > 100 µM
15 | CN1C(=O)C2CCC(CC(=O)O)N2C(=O)c2cc(CCCNC(=N)N)ccc21 (stereo not shown) [Cmpd 16] | > 100 µM
16 | CN1C(=O)C2CCC(CC(=O)O)N2C(=O)c2cc(CCCN)ccc21 (stereo not shown) [Cmpd 17] | > 100 µM
17 | CN1C(=O)C2CCC(CC(=O)O)N2C(=O)c2cc(CCCNC(=N)N)ccc21 (stereo not shown) [Cmpd 18] | > 100 µM
18 | CN1C(=O)CN(CCC(=O)O)C(=O)c2cc(CCCCN)ccc21 [Cmpd 19] | 5 µM
19 | CN1C(=O)CN(CCC(=O)O)C(=O)c2cc(C#CCCN)ccc21 [Cmpd 21] | 6 µM
20 | CC1C(=O)N(C)c2ccc(CCCCN)cc2C(=O)N1CCC(=O)O (stereo not shown) [Cmpd 23] | > 100 µM
21 | CC1C(=O)N(C)c2ccc(CCCCNC(=N)N)cc2C(=O)N1CCC(=O)O (stereo not shown) [Cmpd 24] | 100 µM
22 | CC1C(=O)N(C)c2ccc(C#CCCN)cc2C(=O)N1CCC(=O)O (stereo not shown) [Cmpd 25] | > 100 µM
23 | CC1C(=O)N(C)c2ccc(C#CCCNC(=N)N)cc2C(=O)N1CCC(=O)O (stereo not shown) [Cmpd 26] | 80 µM
24 | NCCCCCc1ccc2c(c1)C(=O)N(CCC(=O)O)CC(=O)N2 [Cmpd 29] | 2.92 µM
25 | N=C(N)NCCCCCc1ccc2c(c1)C(=O)N(CCC(=O)O)CC(=O)N2 [Cmpd 30] | 0.204 µM
26 | NCCCC#Cc1ccc2c(c1)C(=O)N(CCC(=O)O)CC(=O)N2 [Cmpd 31] | 1.43 µM
27 | N=C(N)NCCCC#Cc1ccc2c(c1)C(=O)N(CCC(=O)O)CC(=O)N2 [Cmpd 32] | 0.254 µM
28 | CC(CC(=O)O)N1CC(=O)N(C)c2ccc(C#CCCCN)cc2C1=O (stereo not shown) [Cmpd 37, 1-methyl-4-(2-carboxy-1-methylethyl)-7-(5-amino-1-pentyne)-3,4-dihydro-1H-1,4-benzodiazepine-2,5-dione trifluroacetate] | 0.061 µM

Row | Structure (SMILES) | IC50
29 | CN1C(=O)CN(CCC(=O)O)C(=O)c2cc(CCCCCCN)ccc21 [Cmpd 39] | 0.07 µM
30 | CN1C(=O)CN(CCC(=O)O)C(=O)c2cc(CCCCCCNC(=N)N)ccc21 [Cmpd 40] | 0.12 µM
31 | CN1C(=O)CN(CCC(=O)O)C(=O)c2cc(C#CCCCCN)ccc21 [Cmpd 41, 1-(methyl)-4-(2-carboxyethyl)-7-(6-amino-1-hexynyl)-3,4-dihydro-1H-1,4-benzodiazepine-2,5-dione trifluroacetate] | 0.1 µM
32 | CN1C(=O)CN(CCC(=O)O)C(=O)c2cc(CCc3ccc(CN)cc3)ccc21 [Cmpd 45] | 0.085 µM
33 | CN1C(=O)CN(CCC(=O)O)C(=O)c2cc(CCc3ccc(CNC(=N)N)cc3)ccc21 [Cmpd 46] | 0.265 µM
34 | CN1C(=O)CN(CCC(=O)O)C(=O)c2cc(CCc3cccc(N)c3)ccc21 [Cmpd 47] | 10 µM
35 | CN1C(=O)CN(CCC(=O)O)C(=O)c2cc(C#Cc3cccc(N)c3)ccc21 [Cmpd 49] | 6 µM
36 | CN1C(=O)CN(C(CC(=O)O)c2ccccc2)C(=O)c2cc(CCCCCCN)ccc21 (stereo not shown) [Cmpd 51] | 0.2 µM
37 | CN1C(=O)CN(C(CC(=O)O)c2ccccc2)C(=O)c2cc(CCCCCCNC(=N)N)ccc21 (stereo not shown) [Cmpd 52] | 0.39 µM
38 | CN1C(=O)CN(C(CC(=O)O)c2ccccc2)C(=O)c2cc(C#CCCCCN)ccc21 (stereo not shown) [Cmpd 53] | 0.24 µM
39 | CN1C(=O)CN(C(CC(=O)O)c2ccccc2)C(=O)c2cc(C#CCCCCNC(=N)N)ccc21 (stereo not shown) [Cmpd 54] | 0.1 µM
40 | CN1C(=O)CN(CCC(=O)O)C(=O)c2cc(C#Cc3ccc(C#N)cc3)ccc21 [Cmpd 57] | 30 µM
41 | NCCCC#Cc1ccc2c(c1)C(=O)N(CCC(=O)O)CC(=O)N2Cc1ccc(Cl)cc1 [Cmpd 58] | 0.062 µM
42 | N=C(N)NCCCC#Cc1ccc2c(c1)C(=O)N(CCC(=O)O)CC(=O)N2Cc1ccc(Cl)cc1 [Cmpd 59] | 0.009 µM
43 | N=C(N)NCCCCC#Cc1ccc2c(c1)C(=O)N(CCC(=O)O)CC(=O)N2Cc1ccc(Cl)cc1 [Cmpd 61] | 0.043 µM
44 | NCCCCCc1ccc2c(c1)C(=O)N(CCC(=O)O)CC(=O)N2Cc1ccc(Cl)cc1 [Cmpd 62] | 0.176 µM
45 | N=C(N)NCCCCCCc1ccc2c(c1)C(=O)N(CCC(=O)O)CC(=O)N2Cc1ccc(Cl)cc1 [Cmpd 65] | 0.05 µM
46 | N=C(N)NCCCCCCCc1ccc2c(c1)C(=O)N(CCC(=O)O)CC(=O)N2Cc1ccc(Cl)cc1 [Cmpd 67] | 0.2 µM
47 | COc1ccc(CN2C(=O)CN(CCC(=O)O)C(=O)c3cc(CCCCCNC(=N)N)ccc32)cc1 [Cmpd 79, 1-(p-methoxybenzyl)-4-(2-carboxyethyl)-7-(5-guanidinopentyl)-3,4-dihydro-1H-1,4-benzodiazepine-2,5-dione trifluoroacetate] | 0.011 µM
48 | COc1ccc(CN2C(=O)CN(CCC(=O)O)C(=O)c3cc(CCCCCN)ccc32)cc1 [Cmpd 80, 1-(p-methoxybenzyl)-4-(2-carboxyethyl)-7-(5-aminopentyl)-3,4-dihydro-1H-1,4-benzodiazepine-2,5-dione trifluoroacetate] | 0.16 µM
49 | N=C(N)NCCCCCCc1ccc2c(c1)C(=O)N(CCC(=O)O)CC(=O)N2Cc1ccc2ccccc2c1 [Cmpd 86, 1-(2-napthyl)methyl-4-(2-carboxyethyl)-7-(6-guanidinohexyl)-3,4-dihydro-1H-1,4-benzodiazepine-2,5-dione trifluoroacetate] | 0.055 µM
50 | NCCCCC#Cc1ccc2c(c1)C(=O)N(CCC(=O)O)CC(=O)N2Cc1ccc([N+](=O)[O-])cc1 [Cmpd 87] | 0.031 µM
51 | N=C(N)NCCCCC#Cc1ccc2c(c1)C(=O)N(CCC(=O)O)CC(=O)N2Cc1ccc([N+](=O)[O-])cc1 [Cmpd 88] | 0.031 µM
52 | N=C(N)NCCCCCCc1ccc2c(c1)C(=O)N(CCC(=O)O)CC(=O)N2Cc1ccc(C(F)(F)F)cc1 [Cmpd 89, 1-(p-trifluoromethylbenzyl)-4-(2-carboxyethyl)-7-(6-guanidinohexyl)-3,4-dihydro-1H-1,4-benzodiazepine-2,5-dione trifluoroacetate] | 0.047 µM
53 | NCCCCCCc1ccc2c(c1)C(=O)N(CCC(=O)O)CC(=O)N2Cc1ccc(C(F)(F)F)cc1 [Cmpd 90, 1-(p-trifluoromethylbenzyl)-4-(2-carboxyethyl)-7-(6-aminohexyl)-3,4-dihydro-1H-1,4-benzodiazepine-2,5-dione trifluoroacetate] | 0.005 µM
54 | N=C(N)NCCCCCCc1ccc2c(c1)C(=O)N(CCC(=O)O)CC(=O)N2Cc1cccc(Oc2ccccc2)c1 [Cmpd 91, 1-(m-phenoxybenzyl)-4-(2-carboxyethyl)-7-(6-guanidinohexyl)-3,4-dihydro-1H-1,4-benzodiazepine-2,5-dione trifluoroacetate] | 0.009 µM
55 | N=C(N)NCCCCCc1ccc2c(c1)C(=O)N(CCC(=O)O)CC(=O)N2Cc1cccc(Oc2ccccc2)c1 [Cmpd 92, 1-(m-phenoxybenzyl)-4-(2-carboxyethyl)-7-(5-guanidinopentyl)-3,4-dihydro-1H-1,4-benzodiazepine-2,5-dione trifluoroacetate] | 0.011 µM
